These are literature values, as cited in paper PMC5733301, “Antitubercular Nitroimidazoles Revisited: Synthesis and Activity of the Authentic 3-Nitro Isomer of Pretomanid” (ACS Medicinal Chemistry Letters, 2017).

The test system of data set [1] is M. tb having mutations in the nitroreductase Ddn. Also on record: method as in PMID 19209889. To be noted: ref [22]; cited from earlier work.
The test system is the same in data set [2]. Details: method as in PMID 19209889. The settings on record: ref [22]; cited from earlier work. This is another data set of the same source.

For `O=[N+]([O-])c1cn2c(n1)O[C@H](COCc1ccc(OC(F)(F)F)cc1)C2` [compound 20], the “aerobic MIC99 against Ddn mutant M. tb” value in data set [1] is above 100 µM. In data set [2], the “anaerobic MIC90 against Ddn mutant M. tb” value is 62.5 to 125 µM.
